Legend:
[1] = target: T1, Proteasome subunit beta type-9 (Homo sapiens, UniProt P28065); assay: Inhibition of proteasome subunit beta-1i in human RPMI8226 cells using BODIPY-NC001 by fluorescent densitometry; type: cell-based, RPMI-8226
T1 sequence (P28065 whole entry): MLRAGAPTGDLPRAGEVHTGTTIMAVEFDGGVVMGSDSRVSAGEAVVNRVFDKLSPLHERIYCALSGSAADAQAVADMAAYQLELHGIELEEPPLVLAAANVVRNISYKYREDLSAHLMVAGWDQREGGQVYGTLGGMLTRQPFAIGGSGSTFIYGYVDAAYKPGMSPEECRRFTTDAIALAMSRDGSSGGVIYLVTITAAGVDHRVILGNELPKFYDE

[2] = Inhibition of 20s proteasome subunit beta-1c in human Raji cells using BODIPY- epoxomicin by fluorescent densitometry; type: cell-based
[3] = Inhibition of proteasome subunit beta-5c/i in human RPMI8226 cells by fluorescent densitometry; type: cell-based; conditions: rpmi-8226
RPMI-8226 [4] = assay: Ratio of IC50 for 20s proteasome subunit beta-1c to IC50 for proteasome subunit beta-1i in human RPMI8226 cells; type: cell-based
[5] = Inhibition of 20s proteasome subunit beta-1c in human RPMI8226 cells using BODIPY-NC001 by fluorescent densitometry; type: cell-based; conditions: rpmi-8226
RPMI-8226 [6] = assay: Ratio of IC50 for proteasome subunit beta-1i to IC50 for proteasome subunit beta-5c/I in human RPMI8226 cells; type: cell-based
[7] = Inhibition of proteasome subunit beta-2c/i in human RPMI8226 cells by fluorescent densitometry; type: cell-based; conditions: rpmi-8226
[8] = target: T1, Proteasome subunit beta type-9; assay: Inhibition of proteasome subunit beta-1i in human Raji cells using BODIPY- epoxomicin by fluorescent densitometry; type: cell-based
Raji = assay: Ratio of IC50 for 20s proteasome subunit beta-1c to IC50 for proteasome subunit beta-1i in human Raji cells; type: cell-based
[9] = target: T2, Proteasome subunit beta type-8 (Homo sapiens, UniProt P28062); assay: Inhibition of proteasome subunit beta-5i in human Raji cells using BODIPY-NC005 by fluorescent densitometry; type: cell-based
T2 sequence (P28062 whole entry): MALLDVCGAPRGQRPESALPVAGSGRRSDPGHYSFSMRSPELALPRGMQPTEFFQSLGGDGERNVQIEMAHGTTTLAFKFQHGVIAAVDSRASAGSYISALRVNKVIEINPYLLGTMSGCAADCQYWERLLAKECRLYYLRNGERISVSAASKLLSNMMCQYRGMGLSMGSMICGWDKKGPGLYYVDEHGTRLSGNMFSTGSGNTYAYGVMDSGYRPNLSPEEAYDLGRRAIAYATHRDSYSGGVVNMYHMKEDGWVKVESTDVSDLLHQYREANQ

[10] = Inhibition of 20s proteasome subunit beta-5c in human Raji cells using BODIPY-NC005 by fluorescent densitometry; type: cell-based
[11] = target: T2, Proteasome subunit beta type-8; assay: Inhibition of proteasome subunit beta-5i in human RPMI8226 cells using BODIPY-NC005 by fluorescent densitometry; type: cell-based, RPMI-8226
[12] = target: T3, Proteasome subunit beta type-10 (Homo sapiens, UniProt P40306); assay: Inhibition of proteasome subunit beta-2i in human RPMI8226 cells using BODIPY-epoxomicin by fluorescent densitometry; type: cell-based, RPMI-8226
T3 sequence (P40306 whole entry): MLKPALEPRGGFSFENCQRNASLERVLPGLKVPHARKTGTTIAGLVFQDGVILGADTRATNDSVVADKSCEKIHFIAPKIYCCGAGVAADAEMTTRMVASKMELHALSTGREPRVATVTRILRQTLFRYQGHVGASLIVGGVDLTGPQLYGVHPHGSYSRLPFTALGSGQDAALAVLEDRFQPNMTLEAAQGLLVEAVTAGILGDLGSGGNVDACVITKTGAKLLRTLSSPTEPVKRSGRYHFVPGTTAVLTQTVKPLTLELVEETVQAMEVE

[13] = Inhibition of 20s proteasome subunit beta-2c in human Raji cells using BODIPY- epoxomicin by fluorescent densitometry; type: cell-based
[14] = Inhibition of 20s proteasome subunit beta-5c in human RPMI8226 cells using BODIPY-NC005 by fluorescent densitometry; type: cell-based; conditions: rpmi-8226
[15] = Inhibition of 20s proteasome subunit beta-2c in human RPMI8226 cells using BODIPY-epoxomicin by fluorescent densitometry; type: cell-based; conditions: rpmi-8226
[16] = target: T3, Proteasome subunit beta type-10; assay: Inhibition of proteasome subunit beta-2i in human Raji cells using BODIPY- epoxomicin by fluorescent densitometry; type: cell-based

Row | SMILES | IC50 [1] | IC50 [2] | IC50 [3] | Ratio IC50 (RPMI-8226 [4]) | IC50 [5] | Ratio IC50 (RPMI-8226 [6]) | IC50 [7] | IC50 [8] | Ratio IC50 (Raji) | IC50 [9] | IC50 [10] | IC50 [11] | IC50 [12] | IC50 [13] | IC50 [14] | IC50 [15] | IC50 [16]
1 | CCCC[C@H](NC(=O)[C@@H]1CCCN1C(=O)[C@H](C)NC(=O)CN=[N+]=[N-])C(=O)N[C@@H](CC(C)C)C(=O)[C@@]1(C)CO1 | 140 nM | 88 nM | > 10000 nM | 3 | 370 nM | > 70 | > 10000 nM | 45 nM | 2 | – | – | – | – | – | – | – | –
2 | C[C@@H](NC(=O)CN1CCOCC1)C(=O)N[C@@H](Cc1c[nH]c2ccccc12)C(=O)N[C@@H](CC1CCCCC1)C(=O)[C@@]1(C)CO1 | 6200 nM | > 10000 nM | – | – | > 10000 nM | – | – | > 10000 nM | – | 32 nM | 827 nM | 59 nM | > 10000 nM | > 10000 nM | 2900 nM | > 10000 nM | > 10000 nM
3 | CCCC[C@H](NC(=O)[C@@H]1CC(F)(F)CN1C(=O)[C@H](C)NC(=O)CN=[N+]=[N-])C(=O)N[C@@H](CC1CCCCC1)C(=O)[C@@]1(C)CO1 | 130 nM | 24000 nM | 65000 nM | 360 | 47000 nM | 500 | > 100000 nM | 95 nM | 252 | – | – | – | – | – | – | – | > 100000 nM
4 | CC1=C(C(=O)N[C@H](C)C(=O)N[C@@H](Cc2c[nH]c3ccccc23)C(=O)N[C@@H](Cc2ccccc2)C(=O)[C@@]2(C)CO2)Cc2ccccc21 | 3500 nM | > 10000 nM | – | – | > 100000 nM | – | – | 1840 nM | – | 2.5 nM | 227 nM | 25 nM | > 100000 nM | > 10000 nM | 2900 nM | > 100000 nM | > 10000 nM

— ChEMBL document CHEMBL3351747, “Structure-based design of β1i or β5i specific inhibitors of human immunoproteasomes” (J Med Chem, 2014)
